Measurements taken from patent US9301923B2, “Lipids, lipid compositions, and methods of using them” (NOVARTIS AG, priority 2009, dated 2016).
Where two headings read alike, the source gives them in different places.

What was measured:
[1] = pKa of the lipid by TNS fluorescence; assay type: physicochemical
In short: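 Lipid dissolved in ethanol (2 mM stock) and measured with TNS across eight buffers of differing pH, in water at standard temperature and pressure. Normalized fluorescence intensity plotted against pH and points joined by a smooth line to derive pKa, precise to about 0.2 units.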

[2] = system: PLK-1 mRNA in Hep3B tumors; assay: Hep3B tumor study, PLK-1 mRNA KD in tumor tissue; assay type: in vivo, human; conditions: Hep3B tumor, mouse, i.v., LNP composition as in the source
From the text: Formulated siRNAs are made up of double stranded siRNA sequences specific to a target mRNA sequence, and are in the form of lipid nucleotid particles (LNPs) containing cationic lipids, stealth lipids and neutral lipids, as provided in the Examples below. The siRNA construct for use in targeting the liver is specific to Factor VII. The siRNA construct for use in targeting tumors is specific to PLK1-424, which is published by Judge et al., See, J Clin Invest. 2009 March; 119(3):661-73; doi: 10.1172/JCI37515). • 1. FVII siRNA duplex sequence
Hep3B tumors are established in female nude mice by sc injection of 7×10^6 cells in 100 ul PBS into the left flank. Mice are randomized into treatment groups 10-14 days after seeding as tumors reached an average size of 100 mm^3. siRNA formulated LNP formulations are administered at various dose levels intravenously via the lateral tail vein calculated on a mg siRNAs/kg basis according to individual animal weights (10 ml/kg injection volume). Mice are euthanized by CO2 inhalation at various time points and the tumors are harvested for mRNA quantitation. Lipids with a wide range of pKa (5.3-6.6) are used in the LNP formulations. Tumors are measured in 2 dimensions (width×length) to assess tumor growth using digital calipers. Tumor volume is calculated using the equation [a×b×b/2], where a equals the largest diameter and b equals the smallest diameter.
About 30-50 mg tumor tissue is homogenized in tissue lysis buffer in a Qiagen homogenizer followed by centrifugation to clarify lysates. Total RNA is isolated using RNeasy isolation kit (catalog number 74106) according to the manufacture's protocol. PLK-1 mRNA is analyzed by quantitative PCR and normalized to human GAPDH. Applied Biosystems human PLK-1 gene expression assay Hs00983229_m1 and human GAPDH endogenous control cat number 4326317E are used for mRNA detection.
The pKa in all tables refers to the pKa of the cationic lipid. Where multiple doses are indicated (e.g., 3×5), the first number indicates the number of doses given and the second number indicates the amount per dose in mg siRNA (biologically active agent) per kg mouse. In general the multiple doses are administered at 24 hour intervals, and tissues for mRNA quantitation are harvested 24 hours after the last dose.

[3] = Particle size and PDI by dynamic light scattering (Malvern Zetasizer); assay type: physicochemical
In short: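 Nanoparticles diluted in PBS to a count rate of about 200-400 kcts and measured by dynamic light scattering; size given as intensity-weighted average diameter, with polydispersity index from the same measurement.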

[4] = system: Factor VII; assay: Factor VII activity assay, in vivo liver delivery of FVII siRNA LNP; design: species or system mouse; conditions: for FVII inhib %: ~48 h; for in vivo Factor VII inhibition: formulation containing the cationic lipid, RNAi construct specific to Factor VII, liver
In short: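 Female CD-1 mice (~25 g) given a single i.v. tail-vein dose of FVII siRNA in LNPs (cationic, stealth, neutral lipids), dosed as mg siRNA/kg. Plasma collected ~48 h post-injection; FVII activity read against a standard curve from pooled vehicle-control plasma.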

[5] = LNP formulation with PLK1 siRNA, helper, neutral and stealth lipid, molar ratio and N/P as in the table
[6] = dose 3 mg/kg siRNA i.v., lipid/no neutral lipid/CHOL/AVANTI 880150P 50/0/46/4, N/P 3.43
[7] = lipid/no neutral lipid/CHOL/AVANTI 880150P 50/0/46/4, N/P 3.43
[8] = dose 1 mg/kg siRNA i.v., lipid/DSPC/CHOL/AVANTI 880150P 50/28/18/4, N/P 3.43
[9] = dose 3 mg/kg siRNA i.v., lipid/DSPC/CHOL/AVANTI 880150P 50/28/18/4, N/P 3.43
[10] = lipid/DSPC/CHOL/AVANTI 880150P 50/28/18/4, N/P 3.43
[11] = lipid/no neutral lipid/CHOL/GM-020 NOF 60/0/36/4, N/P 3

Structure (SMILES)	pKa ([1]; pKa)	FVII inhib % [4, 6] [%]	Final size (nm) [3, 7] [nm]	PDI [3, 7]	FVII inhib % [4, 9] [%]	Final size (nm) [3, 10] [nm]	PDI [3, 10]	other results
CCCCCCCC/C=C\CCCCCCCCOCOCC(CN1CCCCC1)OCCCOC(=O)CCC(=O)O[C@H]1CC[C@@]2(C)C(=CC[C@H]3[C@@H]4CC[C@H]([C@H](C)CCCC(C)C)[C@@]4(C)CC[C@@H]32)C1 (stereo partly drawn) [E0160]	6.05	–	–	–	–	–	–	PLK1 inhibition % ([2]; 1 × 1 mg siRNA/kg): 38%; Final size (nm) [3, 5]: 100.8 nm
CCCCC/C=C\C/C=C\CCCCCCCCOCC(CN1CCOCC1)OCCCOCCCO[C@H]1CC[C@@]2(C)C(=CC[C@H]3[C@@H]4CC[C@H]([C@H](C)CCCC(C)C)[C@@]4(C)CC[C@@H]32)C1 (stereo partly drawn) [E0093]	4.85	–	–	–	–	–	–	PLK1 inhibition % ([2]; 1 × 10 mg siRNA/kg): 2%; Final size (nm) [3, 5]: 82.42 nm
CCCCC/C=C\C/C=C\CCCCCCCCOCC(CN1CCCCC1)OCCCOC(=O)CCC(=O)O[C@H]1CC[C@@]2(C)C(=CC[C@H]3[C@@H]4CC[C@H]([C@H](C)CCCC(C)C)[C@@]4(C)CC[C@@H]32)C1 (stereo partly drawn) [E0179]	5.95	–	–	–	–	–	–	PLK1 inhibition % ([2]; 1 × 1 mg siRNA/kg): 53%; Final size (nm) [3, 5]: 114.6 nm
CCCCC/C=C\C/C=C\CCCCCCCCOCC(CN1CCC(C)(C)C1)OCCOCCO[C@H]1CC[C@@]2(C)C(=CC[C@H]3[C@@H]4CC[C@H]([C@H](C)CCCC(C)C)[C@@]4(C)CC[C@@H]32)C1 (stereo partly drawn) [E0026]	–	95.1	87	0.23	–	–	–	PLK1 inhibition % ([2]; 1 × 5 mg siRNA/kg): 75%; Final size (nm) [3, 5]: 105.8 nm
CCCCCCCC/C=C\CCCCCCCCOCC(CN1CC[C@@H]2CCCC[C@H]2C1)OCCOCCO[C@H]1CC[C@@]2(C)C(=CC[C@H]3[C@@H]4CC[C@H]([C@H](C)CCCC(C)C)[C@@]4(C)CC[C@@H]32)C1 (stereo partly drawn) [E0120]	5.48	–	–	–	–	–	–	PLK1 inhibition % ([2]; 1 × 1 mg siRNA/kg): 28%; Final size (nm) [3, 5]: 87 nm
CCCCC/C=C\C/C=C\CCCCCCCCOCC(CN1CCCCCC1)OCCOCCO[C@H]1CC[C@@]2(C)C(=CC[C@H]3[C@@H]4CC[C@H]([C@H](C)CCCC(C)C)[C@@]4(C)CC[C@@H]32)C1 (stereo partly drawn) [E0017]	6.46	96.5	97	0.19	98.3	106	0.17	FVII inhib % [4, 8]: 53.8%
CCCCC/C=C\C/C=C\CCCCCCCCOCC(CN1CCC2(CC1)OCCCO2)OCCOCCO[C@H]1CC[C@@]2(C)C(=CCC3C2CC[C@@]2(C)C3CC[C@@H]2[C@H](C)CCCC(C)C)C1 (stereo partly drawn) [E0007]	5.84	76.8	138	0.148	72.2	92	0.178	–
CCCCC/C=C\C/C=C\CCCCCCCCOCC(CN1CCC(OC)C1)OCCCCO[C@H]1CC[C@@]2(C)C(=CCC3C2CC[C@@]2(C)C3CC[C@@H]2[C@H](C)CCCC(C)C)C1 (stereo partly drawn) [E0035]	5.93	66.8	79	0.21	22	103	0.2	–
CCCCCCCC/C=C\CCCCCCCCOCC(CN1CCC(OC)C1)OCCO[C@H]1CC[C@@]2(C)C(=CC[C@H]3[C@@H]4CC[C@H]([C@H](C)CCCC(C)C)[C@@]4(C)CC[C@@H]32)C1 (stereo partly drawn) [E0062]	6.45	–	–	–	–	–	–	FVII inhib % ([4]; dose 1 mg/kg siRNA i.v., lipid/no neutral lipid/CHOL/GM-020 NOF 60/0/36/4, N/P 3): 64.8%; Final size (nm) [3, 11]: 145.1 nm; PDI [3, 11]: 0.125
CCCCC/C=C\C/C=C\CCCCCCCCOCC(CN1CCOCCOCCOCC1)OCCOCCO[C@H]1CC[C@@]2(C)C(=CC[C@H]3[C@@H]4CC[C@H]([C@H](C)CCCC(C)C)[C@@]4(C)CC[C@@H]32)C1 (stereo partly drawn) [E0030]	5.38	12.4	155	0.08	–	–	–	–
CCCCC/C=C\C/C=C\CCCCCCCCOCC(CN1CCC(N2CCCCC2)CC1)OCCOCCO[C@H]1CC[C@@]2(C)C(=CCC3C2CC[C@@]2(C)C3CC[C@@H]2[C@H](C)CCCC(C)C)C1 (stereo partly drawn) [E0004]	7.48	41	186	0.201	23.4	142	0.113	–
CCCCC/C=C\C/C=C\CCCCCCCCOCC(CN1CC2CCCN(C(=O)OC(C)(C)C)C2C1)OCCOCCO[C@H]1CC[C@@]2(C)C(=CCC3C2CC[C@@]2(C)C3CC[C@@H]2[C@H](C)CCCC(C)C)C1 (stereo partly drawn) [E0041]	4.8	17.6	93	0.21	−7.4	95	0.37	–
CCCCC/C=C\C/C=C\CCCCCCCCOCC(CN1CCC(C)(C)CC1)OCCOCCO[C@H]1CC[C@@]2(C)C(=CCC3C2CC[C@@]2(C)C3CC[C@@H]2[C@H](C)CCCC(C)C)C1 (stereo partly drawn) [E0171]	8.5	54.1	90	0.18	–	–	–	in vivo Factor VII inhibition [4]: 40.8%
CCCCC/C=C\C/C=C\CCCCCCCCOCC(CN1CCCC2CCCCC21)OCCOCCO[C@H]1CC[C@@]2(C)C(=CCC3C2CC[C@@]2(C)C3CC[C@@H]2[C@H](C)CCCC(C)C)C1 (stereo partly drawn) [E0010]	5.85	65.1	80	0.201	46.8	90	0.184	–
CCCCC/C=C\C/C=C\CCCCCCCCOCC(CN1CCCCC1)OCCOCCNC(=O)O[C@H]1CC[C@@]2(C)C(=CCC3C2CC[C@@]2(C)C3CC[C@@H]2[C@H](C)CCCC(C)C)C1 (stereo partly drawn) [E0054]	6.58	98.9	96	0.13	97.8	103	0.2	FVII inhib % [4, 8]: 57.5%; FVII inhib % ([4]; dose 1 mg/kg siRNA i.v., lipid/no neutral lipid/CHOL/AVANTI 880150P 50/0/46/4, N/P 3.43): 63%
CCCCC/C=C\C/C=C\CCCCCCCCOCC(CN1CCCCC1)OCCCCO[C@H]1CC[C@@]2(C)C(=CCC3C2CC[C@@]2(C)C3CC[C@@H]2[C@H](C)CCCC(C)C)C1 (stereo partly drawn) [E0027]	5.7	30.3	65	0.15	36.3	146	0.311	pKa [1]: 5.71; in vivo Factor VII inhibition [4]: 30.3%
CCCCC/C=C\C/C=C\CCCCCCCCOC[C@@H](CN1CCC[C@H]1C)OCCOCCO[C@H]1CC[C@@]2(C)C(=CCC3C2CC[C@@]2(C)C3CC[C@@H]2[C@H](C)CCCC(C)C)C1 (stereo partly drawn) [E0052]	6.95	–	–	–	98.1	100.4	0.185	FVII inhib % [4, 8]: 69.8%
